Results taken from US12344587B2, “Synthetic retinoids for use in RAR activation” (UNIVERSITY OF DURHAM, priority 2019, dated 2025).
Values after ≈ are worked out from the molar mass of the structure shown.

Experiments:
[1] = system: retinoic acid response element (RARE); assay: X-Gal RA based reporter assay (genomic activity); type: cell-based; conditions: for Genomic Activity (X-Gal RA Based Reporter Assay) Efficacy (Emax) / EC50: Sil-15 reporter cells, overnight incubation; for EC50: read-out: Genomic Activity (X-Gal RA Based Reporter Assay) Potency (EC50); for Genomic activity and potency compared to retinoic acid (ATRA): X-Gal assay, versus ATRA
Protocol: The genomic activity of synthetic retinoids was evaluated by determining their efficiency of inducing transcription using the X-Gal Assay. The X-Gal Assay utilizes Sil-15 reporter cells in which the transcription of the LacZ gene is under control of a promoter linked to a retinoic acid response element (RARE). After treatment of the reporter cells with retinoids, the ability of the compounds to induce transcription can be attained by monitoring and quantifying the activity of β-galactosidase produced by the reporter cells.
Sil-15 cells were plated at 100,000 cells per well in 96-well plates coated in 0.1% gelatin. The following day, serial dilutions of retinoid ligands, prepared in Dulbecco's Modified Eagle's Medium (DMEM) containing 10% foetal calf serum (FCS) were added at concentrations from 10^−6 M to 10^−14 M and the plates were incubated overnight. All concentrations for the ATRA standard curve and the other retinoid ligands were tested in triplicate.
The next day, the assay plates were washed twice with phosphate buffered saline (PBS), fixed with 100 μl per well of 1% glutaraldehyde and 1 mM MgCl2 in PBS for 15 minutes and washed twice with PBS. β-galactosidase activity was detected by the addition of 100 μl of freshly-prepared 0.2% X-Gal in 1 mM MgCl2, 3.3 mM potassium ferricyanide and 3.3 mM potassium ferrocyanide in PBS per well. Plates were incubated for 6 hours at 37° C. in 5% CO2 and colour change was detected by reading the plates at 650 nm on an Emax Precision Microplate Reader (Molecular Devices).

ERK1/2 = ERK1/2 phosphorylation assay, AlphaLISA SureFire Ultra (non-genomic activity); type: cell-based; design: Non-genomic activity (ERK½ Phosphorylation Assay) Efficacy (Emax): unit not given here; conditions: SH-SY5Y cells; for EC50: Homo sapiens, 0.5 h, read-out: Non-genomic activity (ERK½ Phosphorylation Assay) Potency (EC50); for EC50 / Non-genomic activity (ERK½ Phosphorylation Assay) Efficacy (Emax): serum-free, 30 minutes stimulation; for Erk 1/2 phosphorylation potency/efficacy compared to retinoic acid: versus retinoic acid
Protocol: The non-genomic activity of synthetic retinoids was evaluated by measuring their ability to induce phosphorylation of ERK1/2 using the AlphaLISA® SureFire® Ultra ERK1/2 kit.
In this assay, SH-SY5Y cells (100,000 cells/well) were plated in 96-well plates and serum-starved in DMEM for 24 hours. Retinoids were tested at concentrations from 10−5 M to 10−11 M and at a final concentration of 0.1% DMSO in the medium. The assay was carried out on the SH-SY5Y cells in serum-free DMEM, cells were stimulated by retinoid for 30 minutes at 37° C.
At the end of the assay, the medium was removed, and cells were lysed in 50 μl of freshly prepared 1× lysis buffer (supplied in the kit). The 96-well plate was agitated on an orbital shaker (SO1, Stuart Scientific) at approximately 350 rpm for 10 minutes at room temperature.
In the meantime, the activation buffer was diluted 25-fold in the reaction buffers. Under green light in a dark room, the acceptor beads were diluted 50-fold in the freshly prepared reaction mix while the donor beads were diluted 50-fold in dilution buffer to obtain two final reaction mixtures.
10 μl of cell lysate was then transferred per well into 384-well white Proxiplates plates (PerkinElmer) and 5 μl of each prepared acceptor and donor reaction mixture was added under green light in a dark room. Plates were wrapped with aluminium foil and incubated at room temperature for at least 3 hours. Readings were taken using an Envision system (PerkinElmer Life Sciences) using the AlphaScreen® settings.

SH-SY5Y cells = assay: Induction of neurite outgrowth; type: cell-based; conditions: 10 nM, 5 days; for fold induction at 0.01 µM: Homo sapiens, 120 h, read-out: Neurite Outgrowth Fold increase
Protocol: SY—SY5Y cells were plated at 10,000 cells/well in 12-well plates containing acid-treated/poly-L-lysine-coated coverslips. After 24 hours, each retinoid was added to the medium at a concentration of 10 nM and the plates were incubated for 5 days. After retinoid treatment, SH-SY5Y cells on coverslips were washed twice in PBS, fixed in 4% paraformaldehyde (PFA) for 20 minutes at room temperature, and washed twice with PBS.
For immunocytochemical staining of neurites, cells on coverslips were washed three times in PBS, and incubated in blocking solution (10% donkey serum and 0.1% triton X-100 in PBS) for 1 hour at room temperature. Cells were then labelled by incubation overnight at 4° C. with β-III tubulin primary antibody (Sigma-Aldrich) diluted 1:1000 in blocking buffer. Following incubation overnight, cells were washed three times with PBS containing 0.1% Triton X-100 solution (PBST) before incubation with anti-mouse monoclonal secondary antibody (1:300 in PBST; Jackson Immunoresearch) for 2 hours at room temperature. Finally, after three washes in PBST and a final wash in PBS, the coverslips were mounted on slides and stored at 4° C.
ImageJ software with the NeuronJ plugin was used to quantify neurite outgrowth on stained cells. For each experiment, 10 different randomly selected images were taken from each cover slip using a Nikon Eclipse E400 fluorescence microscope. Each image was converted into an 8-bit image (necessary for the NeuronJ plugin) and optimised with the brightness and contrast tool in GIMP (GNU Image Manipulation Program). For each image, individual traces were drawn for each clearly-identifiable neurite using the tracing tool in the NeuronJ plugin. Neurite length was measured in pixels and transformed into the corresponding length in μm depending on the magnification used. The average neurite length for each image was calculated by dividing total neurite length by the total number of neurites per image. Ten images per cover slip were measured and the mean calculated for the coverslip overall. Coverslips were in triplicate for each retinoid and concentration.

[2] = Turbidimetric aqueous solubility; type: physicochemical; conditions: aqueous buffer, kinetic from dmso stock, 0.01 M phosphate buffered saline pH 7.4, 1% DMSO, 37° C.
Protocol: Test compound (10 mM in DMSO) is serially diluted to give solutions of 0.1, 0.3, 1 and 3 mM in DMSO. Each test compound concentration is then further diluted 1 in 100 in buffer (0.01 M phosphate buffered saline pH 7.4) so that the final DMSO concentration was 1% and the final test compound concentrations were 1, 3, 10, 30 and 100 μM. The experiment was performed at 37° C. and each concentration sample was incubated in 7 replicate wells. The plates were incubated for 2 hr at 37° C. before the absorbance was measured at 620 nm. The solubility of the sample was estimated from the concentration of test compound that produced an increase in absorbance above vehicle control (i.e., 1% DMSO in buffer).

Row | Structure (SMILES) | Genomic Activity (X-Gal RA Based Reporter Assay) Efficacy (Emax) [1] | EC50 [1] [nM] | Genomic activity and potency compared to retinoic acid (ATRA) [1] | EC50 (ERK1/2) [nM] | Non-genomic activity (ERK½ Phosphorylation Assay) Efficacy (Emax) (ERK1/2) | Erk 1/2 phosphorylation potency/efficacy compared to retinoic acid (ERK1/2) | Average neurite length compared to cells treated with ATRA (SH-SY5Y cells) | fold induction at 0.01 µM (SH-SY5Y cells) | solubility at 2 h [2] [µM]
1 | CC1(C)CCC(C)(C)c2cc(C#Cc3ccc(C(=O)O)cn3)ccc21 [DC527] | 209.8 | 0.00347 | increased genomic activity and potency | 30.6 | 92.51 | higher potency and efficacy | significantly larger average neurite length | 1.9 | –
2 | COc1cc2c(cc1C#Cc1ncc(C(=O)O)cn1)C(C)(C)CCC2(C)C [DC706] | 265.9 | 603 | – | 90.8 | 36.87 | – | – | 1.3 | –
3 | CC1(C)CCC(C)(C)c2cc(C#Cc3cnc(C(=O)O)cn3)ccc21 [DC529] | 174 | 3.89 | – | 30.4 | 28.85 | – | – | 1.3 | –
4 | COc1cc2c(cc1C#Cc1cc(F)c(C(=O)O)c(F)c1)C(C)(C)CCC2(C)C [DC657] | 154.9 | 0.146 | – | 3.5 | 72.45 | – | – | 1.4 | –
5 | CC1(C)CCC(C)(C)c2nc(C#Cc3ccc(C(=O)O)cc3F)cnc21 [DC712] | 179.7 | 0.382 | – | 6.35 | 94 | – | – | 1.2 | –
6 | Cc1cc2c(cc1C#Cc1ccc(C(=O)O)c(F)c1)C(C)(C)CCC2(C)C [DC667] | 169.8 | 0.134 | – | 4.85 | 44.3 | – | – | 1.4 | –
7 | CC1(C)CCC(C)(C)c2cc(C#Cc3ccc(C(=O)O)c(F)c3)ccc21 [DC525] | 190 | 0.21 | increased genomic activity and potency | 2.49 | 42.44 | higher potency | significantly larger average neurite length | 1.9 | –
8 | Cc1cc2c(cc1C#Cc1ccc(C(=O)O)cn1)C(C)(C)CCC2(C)C [DC656] | 177.2 | 0.427 | – | 502 | 56.77 | – | – | 1.6 | –
9 | CC1(C)CCC(C)(C)c2cc(C#Cc3cc(F)c(C(=O)O)c(F)c3)ccc21 [DC540] | 185.3 | 0.015 | increased genomic activity and potency | 159 | 79.73 | higher potency and efficacy | – | 1.7 | –
10 | Cc1cc2c(cc1C#Cc1ccc(C(=O)O)cc1F)C(C)(C)CCC2(C)C [DC559] | 139.8 | 1.38 | – | 15.7 | 40.68 | – | – | 1.4 | –
11 | CC1=C(/C=C/C(C)=C/C=C/C(C)=C/C(=O)O)C(C)(C)CCC1 [ATRA, All-trans-retinoic acid, reference compound] | 170.1 | 1.04 | – | 33.1 | 48.55 | – | – | 1.4 | –
12 | Cc1cc2c(cc1C#Cc1ncc(C(=O)O)cn1)C(C)(C)CCC2(C)C [DC707] | 192.2 | 0.826 | – | 4.32 | 44.87 | – | – | 1.2 | –
13 | COc1cc2c(cc1C#Cc1ccc(C(=O)O)cn1)C(C)(C)CCC2(C)C [DC646] | 176.3 | 3.16 | – | 144 | 77.63 | – | – | 1.7 | –
14 | CC1(C)CCC(C)(C)c2cc(C#Cc3ccc(C(=O)O)cc3Cl)ccc21 [DC567] | 97.21 | 13.6 | – | 18.1 | 44.46 | – | – | 1.6 | –
15 | COc1cc2c(cc1C#Cc1ccc(C(=O)O)cc1F)C(C)(C)CCC2(C)C [DC564] | 177.1 | 5.31 | – | 18.1 | 44.46 | – | – | 1.3 | –
16 | CC1(C)CCC(C)(C)c2cc(C#Cc3ccc(C(=O)O)cc3)ccc21 [EC23, reference compound] | 169.18 | 0.128 | – | 31.8 | 91.93 | – | – | 2.2 | 6.5 (≈ 2.16 µg/mL)
